The values that follow are results of earlier work, collected in patent US9260379B2 (Ocera Therapeutics, Inc., priority 2010, dated 2016).

The conditions of the data set: free acid.

Each structure is given as a SMILES string.

On to `O=C(O)Cc1ccccc1` [phenyl acetic acid], for which the pKa is approximately 4.28.

The term pKa denotes the pH at which an ionisable group is half protonated.
